Literature values in patent US20230363334A1, “METHOD FOR INCREASING CONTENT AND GENE EXPRESSION OF AROMATIC SUBSTANCE IN FRUITS AND VEGETABLES BY USING HYDROGEN-RICH WATER” (NANJING AGRICULTURAL UNIVERSITY, priority 2020, published 2023).

Conditions: one atmosphere and 20° C.

[HH] [hydrogen]
Maximum concentration of hydrogen dissolved in water (saturation concentration): 1.6 ppm
Solubility of hydrogen (volumes of hydrogen per volume of water): 1.83%
